Assay results taken from patent publication US8921362B2, “6,7-dialkoxy quinazoline derivatives and methods of treating drug resistant and other tumors” (Natco Pharma Limited, priority 2008, dated 2014).

Tests used:
Test in all cases: KinomeScan
Format in all cases: binding
Details in all cases: read-out: % Ctrl @ 10000 nM
ABL1(T315I) = target: T1, ABL1(T315I) (Homo sapiens, UniProt P00519, T315I)
T1 construct: host or cells: E. coli (BL21-derived), T7 phage lysate
Method in brief: (§1)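 Kinase-tagged T7 phage lysates were cleared by centrifugation and filtration, then incubated with liganded beads blocked with excess biotin and SeaBlock/1% BSA/0.05% Tween 20/1 mM DTT buffer plus test compound. Phage retained on beads was eluted and quantified by quantitative PCR.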

BMPR1A = target: T2, BMPR1A (Homo sapiens, UniProt P36894)
T2 construct: host or cells: E. coli host derived from BL21
T2 sequence (P36894 24-532): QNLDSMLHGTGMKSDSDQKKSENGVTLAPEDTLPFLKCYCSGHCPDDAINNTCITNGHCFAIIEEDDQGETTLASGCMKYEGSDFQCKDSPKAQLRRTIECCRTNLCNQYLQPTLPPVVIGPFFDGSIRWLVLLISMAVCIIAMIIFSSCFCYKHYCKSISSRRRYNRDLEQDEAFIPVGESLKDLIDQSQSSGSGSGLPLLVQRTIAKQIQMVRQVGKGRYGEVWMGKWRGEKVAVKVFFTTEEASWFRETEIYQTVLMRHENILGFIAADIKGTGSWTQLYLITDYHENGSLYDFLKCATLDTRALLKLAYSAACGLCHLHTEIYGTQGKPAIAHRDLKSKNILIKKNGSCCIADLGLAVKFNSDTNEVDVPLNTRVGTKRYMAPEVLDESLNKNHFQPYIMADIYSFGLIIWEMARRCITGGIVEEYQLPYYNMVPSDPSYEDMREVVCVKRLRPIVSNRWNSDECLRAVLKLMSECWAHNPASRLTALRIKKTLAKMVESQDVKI
Method in brief: as §1

CAMKK1 = target: T3, CAMKK1 (Homo sapiens, UniProt Q8N5S9)
T3 construct: host or cells: T7 phage in E. coli host derived from BL21
T3 sequence (Q8N5S9 whole entry): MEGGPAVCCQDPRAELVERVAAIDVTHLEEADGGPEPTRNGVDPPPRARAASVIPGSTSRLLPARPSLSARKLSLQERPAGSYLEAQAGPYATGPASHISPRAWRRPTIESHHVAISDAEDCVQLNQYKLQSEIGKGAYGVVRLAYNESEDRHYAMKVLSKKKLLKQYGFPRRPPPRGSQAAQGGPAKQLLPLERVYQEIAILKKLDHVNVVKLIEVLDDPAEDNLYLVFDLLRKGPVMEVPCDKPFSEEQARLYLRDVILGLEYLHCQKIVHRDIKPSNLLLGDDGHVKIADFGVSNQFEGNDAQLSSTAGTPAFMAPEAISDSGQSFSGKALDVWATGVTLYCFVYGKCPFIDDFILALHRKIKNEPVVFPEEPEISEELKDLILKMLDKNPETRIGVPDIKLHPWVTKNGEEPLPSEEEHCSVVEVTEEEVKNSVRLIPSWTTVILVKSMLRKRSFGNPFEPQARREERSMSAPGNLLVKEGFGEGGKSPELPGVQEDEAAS
Method in brief: as §1

CDK11 = target: T4, CDK11 (Homo sapiens, UniProt Q9BWU1)
T4 construct: host or cells: T7 phage in E. coli host derived from BL21
Method in brief: as §1

CDK2 = target: T5, CDK2 (Homo sapiens, UniProt P24941)
T5 construct: host or cells: T7 phage in E. coli host derived from BL21
Method in brief: as §1

CDK8 = target: T6, CDK8 (Homo sapiens, UniProt P49336)
T6 construct: host or cells: T7 phage in E. coli host derived from BL21
T6 sequence (P49336 whole entry): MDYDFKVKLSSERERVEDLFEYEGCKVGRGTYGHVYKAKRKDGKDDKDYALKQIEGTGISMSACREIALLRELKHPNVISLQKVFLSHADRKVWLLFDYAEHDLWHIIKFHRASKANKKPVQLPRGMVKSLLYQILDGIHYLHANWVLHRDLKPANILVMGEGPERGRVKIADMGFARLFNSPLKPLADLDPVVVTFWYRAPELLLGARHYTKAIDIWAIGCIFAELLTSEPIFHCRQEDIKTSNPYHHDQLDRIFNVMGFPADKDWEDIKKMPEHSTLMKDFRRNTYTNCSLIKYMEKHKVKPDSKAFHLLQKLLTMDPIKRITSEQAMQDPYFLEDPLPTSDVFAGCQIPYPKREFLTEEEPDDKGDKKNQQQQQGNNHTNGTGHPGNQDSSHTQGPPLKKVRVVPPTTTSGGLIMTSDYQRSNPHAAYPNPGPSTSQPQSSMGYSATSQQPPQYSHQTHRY
Method in brief: as §1

CSNK1E = target: T7, CSNK1E (Homo sapiens, UniProt P49674)
T7 construct: host or cells: T7 phage in E. coli host derived from BL21
Method in brief: as §1

DDR2 = target: T8, DDR2 (Homo sapiens, UniProt Q16832)
T8 construct: purchased Ambit Biosciences Corp (KinomeScan); host or cells: T7 phage in E. coli host derived from BL21
Method in brief: as §1

EGFR(G719S) = target: T9, EGFR(G719S) (Homo sapiens, UniProt P00533, G719S)
T9 construct: purchased Ambit Biosciences Corp (KinomeScan); host or cells: T7 phage in E. coli host derived from BL21
T9 sequence (P00533 25-1210 G719S): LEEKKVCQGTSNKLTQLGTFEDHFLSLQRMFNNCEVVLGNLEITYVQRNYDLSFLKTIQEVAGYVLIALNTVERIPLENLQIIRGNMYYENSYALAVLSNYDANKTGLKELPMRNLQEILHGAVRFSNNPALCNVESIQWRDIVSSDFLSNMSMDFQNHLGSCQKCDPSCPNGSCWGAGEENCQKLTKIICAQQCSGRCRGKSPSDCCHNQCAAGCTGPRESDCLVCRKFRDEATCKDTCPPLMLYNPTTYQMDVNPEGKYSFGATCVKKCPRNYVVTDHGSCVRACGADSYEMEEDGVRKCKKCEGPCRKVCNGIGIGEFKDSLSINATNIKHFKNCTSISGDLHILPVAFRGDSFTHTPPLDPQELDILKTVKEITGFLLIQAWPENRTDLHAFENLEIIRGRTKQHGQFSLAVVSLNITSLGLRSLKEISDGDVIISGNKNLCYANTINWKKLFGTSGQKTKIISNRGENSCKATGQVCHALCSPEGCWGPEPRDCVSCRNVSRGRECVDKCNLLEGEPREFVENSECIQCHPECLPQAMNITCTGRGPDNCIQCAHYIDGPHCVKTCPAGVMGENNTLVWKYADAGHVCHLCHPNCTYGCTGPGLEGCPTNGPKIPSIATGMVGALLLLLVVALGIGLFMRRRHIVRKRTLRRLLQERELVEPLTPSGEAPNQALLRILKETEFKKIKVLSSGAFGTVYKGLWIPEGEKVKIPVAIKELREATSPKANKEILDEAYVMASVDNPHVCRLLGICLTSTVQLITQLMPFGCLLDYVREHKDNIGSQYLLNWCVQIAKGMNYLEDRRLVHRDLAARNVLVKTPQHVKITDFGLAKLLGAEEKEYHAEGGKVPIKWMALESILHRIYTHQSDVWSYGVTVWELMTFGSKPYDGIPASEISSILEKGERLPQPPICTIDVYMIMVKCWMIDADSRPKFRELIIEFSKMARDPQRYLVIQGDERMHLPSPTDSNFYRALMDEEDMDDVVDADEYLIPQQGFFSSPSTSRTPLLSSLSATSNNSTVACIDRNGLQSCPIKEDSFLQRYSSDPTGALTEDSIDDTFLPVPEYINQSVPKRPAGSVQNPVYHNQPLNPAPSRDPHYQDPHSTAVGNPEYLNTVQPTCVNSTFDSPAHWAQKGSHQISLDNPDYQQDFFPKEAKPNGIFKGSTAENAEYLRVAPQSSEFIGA
Method in brief: as §1

EPHA1 = target: T10, EPHA1 (Homo sapiens, UniProt P21709)
T10 construct: purchased Ambit Biosciences Corp; host or cells: T7 phage in E. coli host derived from BL21
Method in brief: as §1

EPHA5 = target: T11, EPHA5 (Homo sapiens, UniProt P54756)
T11 construct: purchased Ambit Biosciences Corp; host or cells: T7 phage in E. coli host derived from BL21
Method in brief: as §1

FAK = target: T12, FAK (Homo sapiens, UniProt Q05397)
T12 construct: purchased Ambit Biosciences Corp; host or cells: T7 phage in E. coli host derived from BL21
Method in brief: as §1

FRK = target: T13, FRK (Homo sapiens, UniProt P42685)
T13 construct: host or cells: T7 phage in E. coli host derived from BL21
Method in brief: as §1

JNK3 = target: T14, JNK3 (Homo sapiens, UniProt P53779)
T14 construct: host or cells: T7 phage grown in E. coli host derived from BL21
Method in brief: as §1

KIT(D816V) = target: T15, KIT(D816V) (Homo sapiens, UniProt P10721, D816V)
T15 construct: host or cells: T7 phage grown in E. coli host derived from BL21
Method in brief: as §1

LIMK1 = target: T16, LIMK1 (Homo sapiens, UniProt P53667)
T16 construct: host or cells: T7 phage grown in E. coli host derived from BL21
Method in brief: as §1

MARK1 = target: T17, MARK1 (Homo sapiens, UniProt Q9P0L2)
T17 construct: host or cells: E. coli host derived from the BL21 strain, infected with T7 phage
Method in brief: as §1

MEK2 = target: T18, MEK2 (Homo sapiens, UniProt P36507)
T18 construct: host or cells: E. coli host derived from the BL21 strain, infected with T7 phage
Method in brief: as §1

MEK4 = target: T19, MEK4 (Homo sapiens, UniProt P45985)
T19 construct: host or cells: E. coli host derived from the BL21 strain, infected with T7 phage
T19 sequence (P45985 whole entry): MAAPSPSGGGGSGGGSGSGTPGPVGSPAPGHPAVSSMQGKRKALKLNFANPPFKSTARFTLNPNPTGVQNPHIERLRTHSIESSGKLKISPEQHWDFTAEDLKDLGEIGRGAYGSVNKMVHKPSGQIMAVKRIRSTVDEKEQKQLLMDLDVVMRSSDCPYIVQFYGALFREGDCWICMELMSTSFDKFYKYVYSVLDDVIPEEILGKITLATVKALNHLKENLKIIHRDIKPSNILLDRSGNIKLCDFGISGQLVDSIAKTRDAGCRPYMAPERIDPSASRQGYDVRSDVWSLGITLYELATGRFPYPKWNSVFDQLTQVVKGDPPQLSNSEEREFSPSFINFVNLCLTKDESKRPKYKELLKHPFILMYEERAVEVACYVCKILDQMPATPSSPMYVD
Method in brief: as §1

MERTK = target: T20, MERTK (Homo sapiens, UniProt Q12866)
T20 construct: host or cells: E. coli host derived from the BL21 strain, infected with T7 phage
Method in brief: as §1

MKNK1 = target: T21, MKNK1 (Homo sapiens, UniProt Q9BUB5)
T21 construct: host or cells: T7 phage grown in E. coli host derived from BL21
T21 sequence (Q9BUB5 whole entry): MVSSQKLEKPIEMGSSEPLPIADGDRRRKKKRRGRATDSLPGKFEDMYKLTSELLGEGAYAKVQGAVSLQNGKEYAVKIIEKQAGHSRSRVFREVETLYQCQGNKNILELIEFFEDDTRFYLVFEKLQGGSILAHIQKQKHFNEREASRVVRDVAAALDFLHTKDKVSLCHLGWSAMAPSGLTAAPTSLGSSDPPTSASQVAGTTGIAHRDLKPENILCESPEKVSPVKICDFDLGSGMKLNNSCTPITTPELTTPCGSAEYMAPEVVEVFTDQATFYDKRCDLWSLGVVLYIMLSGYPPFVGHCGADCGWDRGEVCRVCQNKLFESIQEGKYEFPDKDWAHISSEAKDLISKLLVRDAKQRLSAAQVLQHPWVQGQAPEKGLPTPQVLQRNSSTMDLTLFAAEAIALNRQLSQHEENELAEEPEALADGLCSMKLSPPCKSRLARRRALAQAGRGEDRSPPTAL
Method in brief: as §1

PAK3 = target: T22, PAK3 (Homo sapiens, UniProt O75914)
T22 construct: host or cells: E. coli host derived from BL21, infected with T7 phage
T22 sequence (O75914 whole entry): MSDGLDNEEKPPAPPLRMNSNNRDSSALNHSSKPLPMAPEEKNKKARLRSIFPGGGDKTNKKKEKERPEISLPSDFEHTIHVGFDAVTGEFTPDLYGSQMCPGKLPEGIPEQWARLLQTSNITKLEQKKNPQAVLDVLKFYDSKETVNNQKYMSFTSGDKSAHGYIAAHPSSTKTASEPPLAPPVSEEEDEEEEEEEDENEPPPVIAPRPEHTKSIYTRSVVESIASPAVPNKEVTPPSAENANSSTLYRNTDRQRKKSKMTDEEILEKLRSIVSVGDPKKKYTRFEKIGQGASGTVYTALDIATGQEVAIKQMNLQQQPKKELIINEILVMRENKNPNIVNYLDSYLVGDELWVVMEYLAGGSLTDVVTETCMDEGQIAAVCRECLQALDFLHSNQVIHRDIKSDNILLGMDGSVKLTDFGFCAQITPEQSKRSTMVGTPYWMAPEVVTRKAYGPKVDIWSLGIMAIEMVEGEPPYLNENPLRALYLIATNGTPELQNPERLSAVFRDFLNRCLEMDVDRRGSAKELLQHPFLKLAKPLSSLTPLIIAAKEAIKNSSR
Method in brief: as §1

PFTAIRE2 = target: T23, PFTAIRE2 (Homo sapiens, UniProt Q96Q40)
T23 construct: host or cells: E. coli host derived from BL21, infected with T7 phage
Method in brief: as §1

PFTK1 = target: T24, PFTK1 (Homo sapiens, UniProt O94921)
T24 construct: host or cells: E. coli host derived from BL21, infected with T7 phage
Method in brief: as §1

PIP5K2B = target: T25, PIP5K2B (Homo sapiens, UniProt P78356)
T25 construct: host or cells: T7 phage in E. coli host derived from BL21
T25 sequence (P78356 whole entry): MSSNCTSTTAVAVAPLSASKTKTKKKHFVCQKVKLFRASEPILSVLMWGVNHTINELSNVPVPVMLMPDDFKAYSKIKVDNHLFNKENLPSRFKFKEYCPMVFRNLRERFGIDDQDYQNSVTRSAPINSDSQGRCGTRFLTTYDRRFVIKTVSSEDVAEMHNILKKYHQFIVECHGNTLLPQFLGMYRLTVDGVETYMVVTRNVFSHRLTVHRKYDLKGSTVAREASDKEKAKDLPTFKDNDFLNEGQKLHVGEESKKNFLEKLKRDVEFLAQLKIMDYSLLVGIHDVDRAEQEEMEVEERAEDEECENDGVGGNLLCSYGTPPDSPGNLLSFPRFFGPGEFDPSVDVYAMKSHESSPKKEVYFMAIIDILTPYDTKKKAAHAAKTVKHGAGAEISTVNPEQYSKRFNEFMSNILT
Method in brief: as §1

PKAC-alpha = target: T26, PKAC-alpha (Homo sapiens, UniProt P17612)
T26 construct: host or cells: T7 phage in E. coli host derived from BL21
Method in brief: as §1

PLK3 = target: T27, PLK3 (Homo sapiens, UniProt Q9H4B4)
T27 construct: host or cells: T7 phage in E. coli host derived from BL21
Method in brief: as §1

PRKX = target: T28, PRKX (Homo sapiens, UniProt P51817)
T28 construct: host or cells: E. coli host derived from BL21, T7 phage display
Method in brief: as §1

[1] = target: T29, RPS6KA5(Kin.Dom.-2-C-terminal) (Homo sapiens, UniProt O75582)
T29 construct: RPS6KA5(Kin.Dom.-2-C-terminal); host or cells: E. coli host derived from BL21, T7 phage display
T29 sequence (O75582 426-687 limits assumed): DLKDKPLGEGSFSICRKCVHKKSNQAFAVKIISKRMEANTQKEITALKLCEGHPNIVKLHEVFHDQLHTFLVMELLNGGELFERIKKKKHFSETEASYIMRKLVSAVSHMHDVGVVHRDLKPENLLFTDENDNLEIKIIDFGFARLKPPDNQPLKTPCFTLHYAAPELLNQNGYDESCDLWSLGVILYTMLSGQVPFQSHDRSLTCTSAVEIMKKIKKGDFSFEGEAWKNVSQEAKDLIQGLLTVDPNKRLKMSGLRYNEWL
Method in brief: as §1

SNARK = target: T30, SNARK (Homo sapiens, UniProt Q9H093)
T30 construct: host or cells: T7 phage grown in E. coli (BL21-derived)
Method in brief: as §1

STK16 = target: T31, STK16 (Homo sapiens, UniProt O75716)
T31 construct: host or cells: T7 phage grown in E. coli (BL21-derived)
Method in brief: as §1

TESK1 = target: T32, TESK1 (Homo sapiens, UniProt Q15569)
T32 construct: host or cells: T7 phage grown in E. coli (BL21-derived)
Method in brief: as §1

ULK2 = target: T33, ULK2 (Homo sapiens, UniProt Q8IYT8)
T33 construct: host or cells: E. coli host derived from BL21, T7 phage
Method in brief: as §1

Compound: C#Cc1cccc(Nc2ncnc3cc(OC)c(OCCCN4CCOCC4)cc23)c1 [NRC-2694, N-(3-ethynylphenyl)-7-methoxy-6-[3-(4-morpholinyl)propoxy]-4-quinazolinamine]
- remaining binding at 10 µM (ABL1(T315I)): 35%
- remaining binding at 10 µM (BMPR1A): 100%
- remaining binding at 10 µM (CAMKK1): 71%
- remaining binding at 10 µM (CDK11): 87%
- remaining binding at 10 µM (CDK2): 94%
- remaining binding at 10 µM (CDK8): 100%
- remaining binding at 10 µM (CSNK1E): 9.6%
- remaining binding at 10 µM (DDR2): 76%
- remaining binding at 10 µM (EGFR(G719S)): 0%
- remaining binding at 10 µM (EPHA1): 55%
- remaining binding at 10 µM (EPHA5): 86%
- remaining binding at 10 µM (FAK): 85%
- remaining binding at 10 µM (FRK): 10%
- remaining binding at 10 µM (JNK3): 77%
- remaining binding at 10 µM (KIT(D816V)): 17%
- remaining binding at 10 µM (LIMK1): 62%
- remaining binding at 10 µM (MARK1): 56%
- remaining binding at 10 µM (MEK2): 44%
- remaining binding at 10 µM (MEK4): 92%
- remaining binding at 10 µM (MERTK): 48%
- remaining binding at 10 µM (MKNK1): 1.2%
- remaining binding at 10 µM (PAK3): 55%
- remaining binding at 10 µM (PFTAIRE2): 71%
- remaining binding at 10 µM (PFTK1): 71%
- remaining binding at 10 µM (PIP5K2B): 49%
- remaining binding at 10 µM (PKAC-alpha): 100%
- remaining binding at 10 µM (PLK3): 97%
- remaining binding at 10 µM (PRKX): 100%
- remaining binding at 10 µM [1]: 57%
- remaining binding at 10 µM (SNARK): 19%
- remaining binding at 10 µM (STK16): 100%
- remaining binding at 10 µM (TESK1): 83%
- remaining binding at 10 µM (ULK2): 39%
